Data on 27 compounds can be found in US8008291B2 (Mimetica Pty Ltd, priority 2008, dated 2011).

Broadly, the IC50 is the concentration that inhibits the measured activity by half.

For the test, the target named is T1, human MC5R (hMC5R) (Homo sapiens, UniProt P33032).
T1 construct: purchased Perkin Elmer RBXMC5M400UA
T1 sequence (P33032 whole entry): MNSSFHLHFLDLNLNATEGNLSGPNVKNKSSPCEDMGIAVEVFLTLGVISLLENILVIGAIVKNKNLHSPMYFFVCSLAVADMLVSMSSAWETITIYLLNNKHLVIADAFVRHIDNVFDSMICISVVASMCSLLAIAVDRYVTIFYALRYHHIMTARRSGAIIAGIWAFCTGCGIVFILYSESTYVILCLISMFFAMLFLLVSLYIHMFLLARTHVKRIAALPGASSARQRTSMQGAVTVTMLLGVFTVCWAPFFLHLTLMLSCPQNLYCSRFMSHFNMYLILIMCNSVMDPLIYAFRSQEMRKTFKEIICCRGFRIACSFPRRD
The experiment in a line: Human MC5R radioligand binding assay (membranes, [125I] NDP-MSH displacement). The following applies: hMC5R binding; tested as trifluoroacetate or hydrochloride salts, or free bases; read-out: MC5R radioligand IC50. The procedure: Assessments of compound binding to human MC5R (hMC5R) ) by displacement of an ^125I-labeled NDP-MSH receptor ligand peptide were performed essentially as described in the data sheets produced by Perkin Elmer to accompany their frozen hMC5R membranes (Perkin Elmer catalog number RBXMC5M400UA).
[^125I] NDP-MSH: radiolabeled in house and purified by HPLC:
• Na^125I (0.5 mCi, 17.4 Ci/mg) was added to 50 μL sodium phosphate (50 mM, pH7.4) in an eppendorf tube precoated with IODOGEN. After incubation for 10 mins the phosphate buffer containing the iodine was added to NDP-MSH (10 ul at 1 mg/mL) in a separate eppendorf tube. This was incubated for a further 10 mins. The iodinated NDP-MSH was purified by HPLC on a Zorbax SB 300 column using solvent A: 0.05% TFA and solvent B: 90% acetonitrile 0.045% TFA with a linear gradient, 0-67% B over 60 mins. […] Resuspended membranes were kept on ice until they were added to the wells of the plate. Binding Protocol for 400 microassays per vial: • Assays were performed in 96 well polypropylene plates. […] This was incubated for 1 hr at 37° C.
Turning to `NCCC[C@@H]1N[C@H](CNC(=O)C=Cc2ccccc2)CCN(CC(c2ccccc2)c2ccccc2)C1=O` [Compound 212, N-(((3S,5S)-3-(3-aminopropyl)-1-(2,2-diphenylethyl)-2-oxo-1,4-diazepan-5-yl)methyl)cinnamamide], the IC50 was less than 1000 nM.

Turning to `CCCCC(CC)C(=O)NC[C@@H]1CCN(CC(c2ccccc2)c2ccccc2)C(=O)[C@H](CCCN)N1` (stereo partly drawn) [Compound 221, N-(((3S,5S)-3-(3-aminopropyl)-1-(2,2-diphenylethyl)-2-oxo-1,4-diazepan-5-yl)methyl)-2-ethylhexanamide], the IC50 is less than 10000 nM.

Take `CCCCC(CC)C(=O)NC[C@@H]1CCN(CC(c2ccccc2)c2ccccc2)C(=O)[C@H](CCCNC(=N)N)N1` (stereo partly drawn) [Compound 224, N-(((3S,5S)-1-(2,2-diphenylethyl)-3-(3-guanidinopropyl)-2-oxo-1,4-diazepan-5-yl)methyl)-2-ethylhexanamide]: the IC50 is less than 1000 nM.

Turning to `N=C(N)NCCC[C@@H]1N[C@H](CNC(=O)c2ccc3ccccc3c2)CCN(c2ccc3ccccc3c2)C1=O` [Compound 226, N-(((3S,5S)-3-(3-guanidinopropyl)-1-(naphthalen-2-yl)-2-oxo-1,4-diazepan-5-yl)methyl)-2-naphthamide], the IC50 is less than 10000 nM.

With `N=C(N)NCCC[C@@H]1N[C@H](CNC(=O)c2ccc3ccccc3c2)CCN(CC2c3ccccc3-c3ccccc32)C1=O` [Compound 227, N-(((3S,5S)-1-((9H-fluoren-9-yl)methyl)-3-(3-guanidinopropyl)-2-oxo-1,4-diazepan-5-yl)methyl)-2-naphthamide], the IC50 is less than 10000 nM.

As for `CC(C)NCCCC[C@@H]1N[C@H](CNC(=O)c2ccc3ccccc3c2)CCN(CC(c2ccccc2)c2ccccc2)C1=O` [Compound 229, N-(((3S,5S)-1-(2,2-diphenylethyl)-3-(4-(isopropylamino)butyl)-2-oxo-1,4-diazepan-5-yl)methyl)-2-naphthamide], the IC50 is less than 100 nM.

Consider `NCCC[C@@H]1N[C@H](CNC(=O)COc2ccc(F)cc2)CCN(CC(c2ccccc2)c2ccccc2)C1=O` [Compound 233, N-(((3S,5S)-3-(3-aminopropyl)-1-(2,2-diphenylethyl)-2-oxo-1,4-diazepan-5-yl)methyl)-2-(4-fluorophenoxy)acetamide], for which the IC50 is less than 1000 nM.

Turning to `Cc1c(C(=O)NC[C@@H]2CCN(CC(c3ccccc3)c3ccccc3)C(=O)[C@H](CCCN)N2)cnn1-c1ccccc1` [Compound 241, N-(((3S,5S)-3-(3-aminopropyl)-1-(2,2-diphenylethyl)-2-oxo-1,4-diazepan-5-yl)methyl)-5-methyl-1-phenyl-1H-pyrazole-4-carboxamide], the half-inhibitory concentration (IC50) is less than 10000 nM.

In the case of `N=C(N)NCCC[C@@H]1N[C@H](CNC(=O)c2ccc3ccccc3c2)CCN(CCC2CCCCC2)C1=O` [Compound 242, N-(((3S,5S)-1-(2-cyclohexylethyl)-3-(3-guanidinopropyl)-2-oxo-1,4-diazepan-5-yl)methyl)-2-naphthamide], the IC50 was less than 1000 nM.

As to `N=C(N)NCCC[C@@H]1N[C@H](CNC(=O)c2ccc3ccccc3c2)CCN(CCC2CC3CCC2C3)C1=O` (stereo partly drawn) [Compound 243, N-(((3S,5S)-1-(2-(bicyclo[2.2.1]heptan-2-yl)ethyl)-3-(3-guanidinopropyl)-2-oxo-1,4-diazepan-5-yl)methyl)-2-naphthamide], the IC50 was less than 1000 nM.

With `COc1ccc(C(CN2CC[C@@H](CNC(=O)c3ccc4ccccc4c3)N[C@@H](CCCNC(=N)N)C2=O)c2ccc(OC)cc2)cc1` [Compound 244, N-(((3S,5S)-1-(2,2-bis(4-methoxyphenyl)ethyl)-3-(3-guanidinopropyl)-2-oxo-1,4-diazepan-5-yl)methyl)-2-naphthamide], the half-maximal inhibitory concentration (IC50) was less than 10000 nM.

`O=C(NC[C@@H]1CCN(CC(c2ccccc2)c2ccccc2)C(=O)[C@H](CCCNCc2ccccc2)N1)c1ccc2ccccc2c1` [Compound 245, N-(((3S,5S)-3-(3-(benzylamino)propyl)-1-(2,2-diphenylethyl)-2-oxo-1,4-diazepan-5-yl)methyl)-2-naphthamide]: the IC50 was less than 100 nM.

With `O=C(NC[C@@H]1CCN(CC(c2ccccc2)c2ccccc2)C(=O)[C@H](CCCNC2CCCC2)N1)c1ccc2ccccc2c1` [Compound 246, N-(((3S,5S)-3-(3-(cyclopentylamino)propyl)-1-(2,2-diphenylethyl)-2-oxo-1,4-diazepan-5-yl)methyl)-2-naphthamide], the concentration for half-maximal inhibition (IC50) was less than 100 nM.

Consider `O=C(NC[C@@H]1CCN(CC(c2ccccc2)c2ccccc2)C(=O)[C@H](CCCNC2CCC2)N1)c1ccc2ccccc2c1` [Compound 247, N-(((3S,5S)-3-(3-(cyclobutylamino)propyl)-1-(2,2-diphenylethyl)-2-oxo-1,4-diazepan-5-yl)methyl)-2-naphthamide], for which the half-inhibitory concentration (IC50) is less than 100 nM.

`N=C(N)NCCC[C@@H]1N[C@H](CNC(=O)c2ccc3ccccc3c2)CCN(Cc2ccccc2)C1=O` [Compound 249, N-(((3S,5S)-1-benzyl-3-(3-guanidinopropyl)-2-oxo-1,4-diazepan-5-yl)methyl)-2-naphthamide]: the concentration for half-maximal inhibition (IC50) is less than 10000 nM.

With `N=C(N)NCCC[C@@H]1N[C@H](CNC(=O)c2ccc3ccccc3c2)CCN(CC(c2ccc(F)cc2)c2ccc(F)cc2)C1=O` [Compound 250, N-(((3S,5S)-1-(2,2-bis(4-fluorophenyl)ethyl)-3-(3-guanidinopropyl)-2-oxo-1,4-diazepan-5-yl)methyl)-2-naphthamide], the IC50 was less than 100 nM.

With `N=C(N)NCCC[C@@H]1N[C@H](CNC(=O)c2ccc3ccccc3c2)CCN(Cc2ccc3ccccc3c2)C1=O` [Compound 251, N-(((3S,5S)-3-(3-guanidinopropyl)-1-(naphthalen-2-ylmethyl)-2-oxo-1,4-diazepan-5-yl)methyl)-2-naphthamide], the concentration for half-maximal inhibition (IC50) was less than 10000 nM.

Take `O=C(/C=C/c1ccc(Cl)cc1)NC[C@@H]1CCN(CC(c2ccccc2)c2ccccc2)C(=O)[C@H](CCCN2CCCC2)N1` [Compound 258, (E)-3-(4-chlorophenyl)-N-(((3S,5S)-1-(2,2-diphenylethyl)-2-oxo-3-(3-(pyrrolidin-1-yl)propyl)-1,4-diazepan-5-yl)methyl)acrylamide]: the 50% inhibitory concentration (IC50) was less than 100 nM.

For `NCC[C@@H]1N[C@H](CNC(=O)c2ccc3ccccc3c2)CCN(CC(c2ccccc2)c2ccccc2)C1=O` [Compound 260, N-(((3S,5S)-3-(2-aminoethyl)-1-(2,2-diphenylethyl)-2-oxo-1,4-diazepan-5-yl)methyl)-2-naphthamide], the 50% inhibitory concentration (IC50) is less than 1000 nM.

As to `O=C(NC[C@@H]1CCN(CC(c2ccccc2)c2ccccc2)C(=O)[C@H](CCCN2CCCC2)N1)c1ccc2ccccc2c1` [Compound 261, N-(((3S,5S)-1-(2,2-diphenylethyl)-2-oxo-3-(3-(pyrrolidin-1-yl)propyl)-1,4-diazepan-5-yl)methyl)-2-naphthamide], the 50% inhibitory concentration (IC50) is less than 100 nM.

Regarding `O=C(NC[C@@H]1CCN(CC(c2ccccc2)c2ccccc2)C(=O)[C@H](CCCN2CCC2)N1)c1ccc2ccccc2c1` [Compound 262, N-(((3S,5S)-3-(3-(azetidin-1-yl)propyl)-1-(2,2-diphenylethyl)-2-oxo-1,4-diazepan-5-yl)methyl)-2-naphthamide], the IC50 is less than 100 nM.

With `N=C(N)NCCC[C@@H]1N[C@H](CNC(=O)c2ccc3ccccc3c2)CCN(Cc2cccc3ccccc23)C1=O` [Compound 263, N-(((3S,5S)-3-(3-guanidinopropyl)-1-(naphthalen-1-ylmethyl)-2-oxo-1,4-diazepan-5-yl)methyl)-2-naphthamide], the IC50 is less than 10000 nM.

Turning to `N=C(N)NCCC[C@@H]1N[C@H](CNC(=O)c2ccc3ccccc3c2)CCN(CCc2ccc3ccccc3c2)C1=O` [Compound 264, N-(((3S,5S)-3-(3-guanidinopropyl)-1-(2-(naphthalen-2-yl)ethyl)-2-oxo-1,4-diazepan-5-yl)methyl)-2-naphthamide], the concentration for half-maximal inhibition (IC50) is less than 10000 nM.

Consider `CC(=O)N[C@H](CN1CC[C@@H](CNC(=O)c2ccc3ccccc3c2)N[C@@H](CCCNC(=N)N)C1=O)c1ccccc1` [Compound 265, N-(((3S,5S)-1-((S)-2-acetamido-2-phenylethyl)-3-(3-guanidinopropyl)-2-oxo-1,4-diazepan-5-yl)methyl)-2-naphthamide], for which the IC50 was less than 10000 nM.

On to `O=C(C=Cc1ccccc1)NC[C@@H]1CCN(CC(c2ccccc2)c2ccccc2)C(=O)[C@H](CCCN2CCCCC2)N1` [Compound 266, N-(((3S,5S)-1-(2,2-diphenylethyl)-2-oxo-3-(3-(piperidin-1-yl)propyl)-1,4-diazepan-5-yl)methyl)cinnamamide], for which the IC50 is less than 100 nM.

For `N=C(N)NCCC[C@@H]1N[C@H](CNC(=O)c2ccc3ccccc3c2)CCN(C[C@@H](NC(=O)C2CCC2)c2ccccc2)C1=O` [Compound 269, N-(((3S,5S)-1-((S)-2-(cyclobutanecarboxamido)-2-phenylethyl)-3-(3-guanidinopropyl)-2-oxo-1,4-diazepan-5-yl)methyl)-2-naphthamide], the concentration for half-maximal inhibition (IC50) is less than 1000 nM.

Take `N=C(N)NCCC[C@@H]1N[C@H](CNC(=O)c2ccc3ccccc3c2)CCN(C[C@@H](NC(=O)C2CCCCC2)c2ccccc2)C1=O` [Compound 270, N-(((3S,5S)-1-((S)-2-(cyclohexanecarboxamido)-2-phenylethyl)-3-(3-guanidinopropyl)-2-oxo-1,4-diazepan-5-yl)methyl)-2-naphthamide]: the IC50 is less than 10000 nM.
